Experiments:
Type in all cases: biochemical
[1] = biological target: T1, recombinant soluble tissue factor and recombinant human factor VIIa (TF-VIIa) (Homo sapiens, UniProt P08709); assay: TF-VIIa Assay
T1 construct: purchased American Diagnostica, Greenwich Conn; host or cells: soluble TF made in house in E. coli
Protocol: In this assay 100 nM recombinant soluble tissue factor and 2 nM recombinant human factor VIIa are added to a 96-well assay plate containing 0.4 mM of the substrate, N-Methylsulfonyl-D-phe-gly-arg-p-nitroaniline and either inhibitor or buffer (5 mM CaCl2, 50 mM Tris-HCl, pH 8.0, 100 mM NaCl, 0.1% BSA). The reaction, in a final volume of 100 ul is measured immediately at 405 nm to determine background absorbance. The plate is incubated at room temperature for 60 min, at which time the rate of hydrolysis of the substrate is measured by monitoring the reaction at 405 nm for the release of p-nitroaniline. Percent inhibition of TF-VIIa activity is calculated from OD405 nm value from the experimental and control sample.
(§1) Recombinant soluble TF, consisting of amino acids 1-219 of the mature protein sequence was expressed in E. coli and purified using a Mono Q Sepharose FPLC. Recombinant human VIIa was purchased from American Diagnostica, Greenwich Conn. and chromogenic substrate N-Methylsulfonyl-D-phe-gly-arg-p-nitroaniline was prepared by American Peptide Company, Inc., Sunnyvale, Calif. Factor Xa was obtained from Enzyme Research Laboratories, South Bend Ind., thrombin from Calbiochem, La Jolla, Calif., and trypsin and L-BAPNA from Sigma, St. Louis Mo. The chromogenic substrates S-2765 and S-2238 were purchased from Chromogenix, Sweden.

[2] = biological target: T2, Trypsin (type 1× from porcine pancreas) (Sus scrofa, UniProt P00761); assay: Trypsin Assay; details: read-out: Trpysin II IC50
T2 construct: Trypsin (5 ug/ml; type 1× from porcine pancreas); purchased Sigma, St. Louis Mo; host or cells: porcine pancreas
T2 sequence (P00761 9-231): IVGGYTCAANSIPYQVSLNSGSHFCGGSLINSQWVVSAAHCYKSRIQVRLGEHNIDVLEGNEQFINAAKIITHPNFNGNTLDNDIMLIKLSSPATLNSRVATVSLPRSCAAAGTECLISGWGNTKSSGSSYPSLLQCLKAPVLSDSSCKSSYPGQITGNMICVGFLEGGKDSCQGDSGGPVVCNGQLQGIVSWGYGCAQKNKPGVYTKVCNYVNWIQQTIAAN
Protocol: Trypsin (5 ug/ml; type 1× from porcine pancreas) and 0.375 mM N-α-Benzoyl-L-arginine-p-nitroanilide (L-BAPNA) are added to a 96-well assay plate containing either inhibitor or buffer (50 mM Tris-HCl, pH 8.0, 100 mM NaCl, 0.1% BSA). The reactions, in a final volume of 100 ul are measured immediately at 405 nm to determine background absorbance. The plate is incubated at room temperature for 60 min, at which time the rate of hydrolysis of the substrate is measured by monitoring the reaction at 405 nm for the release of p-nitroaniline. Percent inhibition of trypsin activity is calculated from OD405 nm value from the experimental and control sample.
as §1

[3] = biological target: T3, Human factor Xa (Homo sapiens, UniProt P00742); assay: Xa Assay
T3 construct: purchased Enzyme Research Laboratories, South Bend Ind
T3 sequence (P00742 235-488 limits assumed): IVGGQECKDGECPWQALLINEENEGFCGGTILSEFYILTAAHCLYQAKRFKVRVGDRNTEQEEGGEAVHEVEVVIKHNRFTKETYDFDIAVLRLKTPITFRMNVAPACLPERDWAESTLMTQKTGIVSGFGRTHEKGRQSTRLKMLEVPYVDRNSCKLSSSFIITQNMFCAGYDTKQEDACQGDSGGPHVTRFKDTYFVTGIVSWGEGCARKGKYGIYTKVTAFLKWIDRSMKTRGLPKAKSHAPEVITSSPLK
T3 sequence (P00742 41-179 limits assumed): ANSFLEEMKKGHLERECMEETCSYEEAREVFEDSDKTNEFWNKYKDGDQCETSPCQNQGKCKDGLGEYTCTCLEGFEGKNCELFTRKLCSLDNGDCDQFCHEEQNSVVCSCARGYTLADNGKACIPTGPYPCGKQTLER
Protocol: (§2) Human factor Xa (0.3 nM) and 0.15 mM N-a-Benzyloxycarbonyl-D-arginyl-L-glycyl-L-arginine-p-nitroaniline-dihydrochloride (S-2765) are added to a 96-well assay plate containing either inhibitor or buffer (50 mM Tris-HCl, pH 8.0, 100 mM NaCl, 0.1% BSA). The reaction, in a final volume of 100 ul is measured immediately at 405 nm to determine background absorbance. The plate is incubated at room temperature for 60 min, at which time the rate of hydrolysis of the substrate is measured by monitoring the reaction at 405 nm for the release of p-nitroaniline. Percent inhibition of Xa activity is calculated from OD405 nm value from the experimental and control sample.
as §1

[4] = biological target: Human thrombin (Homo sapiens, UniProt P00734); assay: Thrombin Assay; details: read-out: Thrombin II IC50
Protocol: as §2, with “thrombin (0.28 nm)and 0.06” for “factor Xa (0.3 nM) and 0.15”, “H-D-Phenylalanyl-L-pipecolyl-L-arginine-p-nitroaniline dihydrochloride” for “N-a-Benzyloxycarbonyl-D-arginyl-L-glycyl-L-arginine-p-nitroaniline-dihydrochloride (S-2765)”, “thrombin” for “Xa”, “OD405nm” for “OD405 nm”
as §1

[5] = read-out: Factor Xa percent inhibition

T1 sequence (P08709 213-466 limits assumed): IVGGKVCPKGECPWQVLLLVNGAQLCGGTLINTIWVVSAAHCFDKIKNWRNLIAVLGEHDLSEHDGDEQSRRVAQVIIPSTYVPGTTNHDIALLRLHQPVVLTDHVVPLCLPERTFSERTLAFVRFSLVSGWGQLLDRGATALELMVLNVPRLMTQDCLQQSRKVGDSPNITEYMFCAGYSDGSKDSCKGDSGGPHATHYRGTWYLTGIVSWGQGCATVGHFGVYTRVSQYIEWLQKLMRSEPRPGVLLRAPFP
T1 sequence (P08709 61-212 limits assumed): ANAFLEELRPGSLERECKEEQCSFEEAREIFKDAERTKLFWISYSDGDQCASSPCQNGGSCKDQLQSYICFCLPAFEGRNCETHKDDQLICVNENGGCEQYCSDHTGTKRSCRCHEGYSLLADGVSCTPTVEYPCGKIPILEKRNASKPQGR
T1 sequence (P13726 33-251 partner limits assumed): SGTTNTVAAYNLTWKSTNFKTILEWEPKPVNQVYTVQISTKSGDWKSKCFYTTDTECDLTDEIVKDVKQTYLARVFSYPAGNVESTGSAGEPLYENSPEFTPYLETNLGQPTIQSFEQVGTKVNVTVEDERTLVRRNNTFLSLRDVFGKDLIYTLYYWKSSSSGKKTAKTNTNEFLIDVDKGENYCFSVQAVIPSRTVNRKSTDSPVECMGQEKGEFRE

Row | IC50 [1] | IC50 [2] | inhibition at 30 µM [3, 5] | IC50 [4] | IC50 [3] | inhibition at 100 µM ([3]; @ 100 uM, read-out: Factor Xa percent inhibition) | inhibition at 100 µM ([1]; at 100 uM, read-out: TF-VIIA percent inhibition) | SMILES
1 | 2380 nM | 100 nM | – | 370 nM | > 100000 nM | – | – | CC(C)Nc1ccc(-c2ccccc2OCc2ccccc2)c(CC(=O)NCc2ccc(C(=N)N)cc2)[n+]1[O-] [Example 5]
2 | 6940 nM | 170 nM | – | 86500 nM | > 100000 nM | – | – | CC(C)Nc1ccc(-c2ccccc2Oc2ccccc2)c(CC(=O)NCc2ccc(C(=N)N)cc2)[n+]1[O-] [Example 6]
3 | 5600 nM | 79 nM | – | 39500 nM | 21000 nM | – | – | CC(C)Nc1ccc(-c2csc3ccccc23)c(CC(=O)NCc2ccc(C(=N)N)cc2)[n+]1[O-] [Example 11]
4 | 1420 nM | 121 nM | – | 12000 nM | > 100000 nM | – | – | CC(C)Nc1ccc(-c2ccccc2CN2C(=O)c3ccccc3C2=O)c(CC(=O)NCc2ccc(C(=N)N)cc2)[n+]1[O-] [Example 13]

Second part, the compound before the results:

Row | SMILES | IC50 [1] | IC50 [2] | inhibition at 30 µM [3, 5] | IC50 [4] | IC50 [3] | inhibition at 100 µM ([3]; @ 100 uM, read-out: Factor Xa percent inhibition) | inhibition at 100 µM ([1]; at 100 uM, read-out: TF-VIIA percent inhibition)
5 | N=C(N)c1ccc(CNC(=O)Cc2nc(NC3CCC3)ccc2-c2cccc(N)c2)cc1 [Example 1] | 2460 nM | 60 nM | 27% | 710 nM | – | – | –
6 | N=C(N)c1ccc(CNC(=O)Cc2c(-c3cccc(N)c3)ccc(NC3CCC3)[n+]2[O-])cc1 [Example 2] | 70 nM | 20 nM | 26% | 7130 nM | – | – | –
7 | CC(C)Nc1ccc(-c2cc(N)cc(C(=O)O)c2)c(CC(=O)NCc2ccc(C(=N)N)cc2)[n+]1[O-] [Example 3] | 720 nM | 158 nM | – | > 100000 nM | > 100000 nM | – | –
8 | CC(C)Nc1ccc(-c2cc(N)cc(N)c2)c(CC(=O)NCc2ccc(C(=N)N)cc2)[n+]1[O-] [Example 7] | 84 nM | 22 nM | – | 60700 nM | – | – | –
9 | CC(C)Nc1ccc(-c2cccc(CO)c2)c(CC(=O)NCc2ccc(C(=N)N)cc2)[n+]1[O-] [Example 9] | 1720 nM | 210 nM | – | 6600 nM | > 100000 nM | – | –
10 | CC(=O)c1cccc(-c2ccc(NC(C)C)[n+]([O-])c2CC(=O)NCc2ccc(C(=N)N)cc2)c1 [Example 10] | 1700 nM | 35 nM | – | 3000 nM | – | 40% | –
11 | CC(C)Nc1ccc(/C=C/c2ccccc2)c(CC(=O)NCc2ccc(C(=N)N)cc2)[n+]1[O-] [Example 12] | – | 990 nM | – | 29000 nM | – | – | 23%
12 | CC(C)Nc1ccc(-c2cccc(N)c2)c(CC(=O)NCc2ccc(C(=N)N)cc2)[n+]1[O-] [Example 14] | 155 nM | < 140 nM | – | 9900 nM | > 100000 nM | – | –

— patent publication US20040068113A1, “Substituted polycyclic aryl and heteroaryl pyridines useful for selective inhibition of the coagulation cascade” (priority 2003, published 2004)
